According to patent publication US11278522B2, “Use of methadone metabolites for treatment of anxiety and depression” (Georgetown University, priority 2015, dated 2022):
Values joined by “and” are separate entries in the source; they are usually repeats but may differ in a detail not shown here. Identical values can stand only once. Counter-ions that a name gives are not always drawn.

Tests used:
human α4β2 nAChRs = molecular target: T1, human α4β2 nAChRs (Homo sapiens, UniProt P17787+P43681); assay: 86Rb+ efflux assay, inhibition of nicotine-stimulated efflux, α4β2 nAChRs; assay type: cell-based; settings: 86Rb+ efflux stimulated by 100 μM nicotine; HEK cells YXα4β2H1; mean ± standard error
T1 construct: expressed in transfected cells
Procedure: (§1) Stable cell lines and ^86Rb^+ efflux Assay. The cell lines expressing human α4β2 (YXα4β2H1) and α3β4 (YXα3β4H1) nAChRs were established recently (Xiao el al., 2012). These cell lines were maintained in minimum essential medium (MEM) supplemented with 10% fetal bovine serum, 100 units/mL penicillin G, […] streptomycin and selective antibiotics at 37° C. with 5% CO2 in a humidified incubator. Tissue culture medium and antibiotics were obtained from Invitrogen Corporation (Carlsbad, Calif.), unless otherwise stated. Fetal bovine serum was obtained from Gemini Bio-Products (Woodland, Calif.).
(§2) Functional properties of compounds at nAChRs expressed in the transfected cells were measured using ^86Rb^+ efflux assays as described previously (Xiao et al., 1998, 2001). In brief, cells were plated into 24-well plates coated with poly-D-lysine. The plated cells were grown at 37° C. for 18 to 24 hour to reach 85-95% confluence. The cells were then incubated in growth medium (0.5 mL/well) containing ^86Rb^+ (2 μCi/mL) for 4 hour at 37° C. The loading mixture was then aspirated, and the cells were washed four times with 1 mL buffer (15 mM HEPES, 140 mM NaCl, 2 mM KCl, 1 mM MgSO4, 1.8 mM CaCl2), 11 mM Glucose, pH 7.4). One mL of buffer with or without compounds to be tested was then added to each well. After incubation for 2 min, the assay buffer was collected for measurements of ^86Rb^+ released from the cells. Cells were then lysed by adding 1 mL of 100 mM NaOH to each well, and the lysate was collected for determination of the amount of ^86Rb^+ that was in the cells at the end of the efflux assay. Radioactivity of assay samples and lysates was measured by liquid scintillation counting. Total loading (cpm) was calculated as the sum of the assay sample and the lysate of each well, and the amount of ^86Rb^+ efflux was expressed as a percentage of ^86Rb^+ loaded. Stimulated ^86Rb^+ efflux was defined as the difference between efflux in the presence and absence of nicotine. […] IC50 values were determined by nonlinear least-squares regression analyses (GraphPad. San Diego, Calif.).

human α3β4 nAChRs = molecular target: T2, human α3β4 nAChRs (Homo sapiens, UniProt P30926+P32297); assay: 86Rb+ efflux assay, inhibition of nicotine-stimulated efflux, α3β4 nAChRs; assay type: cell-based; settings: 86Rb+ efflux stimulated by 100 μM nicotine; HEK cells YXα3β4H1; mean ± standard error
T2 construct: expressed in transfected cells
Procedure: as §1, with “The cell lines expressing human α4β2 (YXα4β2H1) and α3β4 (YXα3β4H1) nAChRs were established recently (Xiao el al., 2012).” left out
as §2, with “In” for “Functional properties of compounds at nAChRs expressed in the transfected cells were measured using ^86Rb^+ efflux assays as described previously (Xiao et al., 1998, 2001). In”, “The plated cells were grown at 37° C. for 18 to 24 hour to reach 85-95% confluence.” left out

Marble burying (mice) = assay type: in vivo, mouse; settings: 15 min test, vehicle mean 11 of 20
Procedure: Marble Burying (Mice) After a 1 h period of acclimation to the testing room, the mice (n=6-10 per group) were injected i.p. with saline, EDDP, EMDP, or CDP at the doses indicated. Ten minutes later, the mice were placed individually in small cages (26×20×14 cm), in which twenty marbles had been equally distributed on top of mouse bedding (5-cm deep), and a wire lid was placed on top of the cage. Mice were left undisturbed for 15 min, after which time the number of buried marbles (i.e., those covered by bedding three-quarters or more) was counted.

[1] = Open field locomotor activity (rats); assay type: in vivo, rat; settings: 10 mg/kg s.c., 30 min after injection
Procedure: Locomotor Activity (Rats) Locomotor activity was measured 30 minutes after sc injection of test compound. Animals were placed in a Plexiglass enclosure (16″×16″×16″, TruScan Arena, Coulbourn Instruments, Whitehall, Pa.) with 770 lux illumination over the center of the arena. Animals were allowed to explore for 20 min, during which total distance traveled was recorded using ANYmaze software (Stoelting Co., Wood Dale, Ill.), as previously described (Forcelli et al., 2012).

Forced swim test (mice) = assay type: in vivo, mouse; settings: 6 min test
Procedure: Forced Swim Test (FST; Mice) The FST in mice was conducted as previously described [11]. Briefly, 10 min following i.p. injection of saline, EDDP or EMDP, mice were placed in Plexiglas cylinders filled with water (25° C.) for 6 min while being videotaped. The forced swim score for the entire 6 min test was assessed using the Cleversystems videotracking system (CleverSys) and confirmed with visual scoring by a trained observer. A mouse was judged to be immobile when making only those movements necessary to keep its head above water.

[2] = Elevated plus maze (rats); assay type: in vivo, rat
Procedure: Elevated Plus Maze (Rats) Plus maze testing was performed and scored as previously described (Forcelli and Heinrichs, 2008; Forcelli et al., 2012), in a standard grey rat elevated plus maze (50 cm arms, elevated 40 cm off the ground [Stoelting Co., Wood Dale, Ill.]). Testing was conducted under 20 lux red light, 30 min after drug administration. The number of arm entries and time spent in open and closed arms were recorded using ANYmaze (Stoelting Co, Wood Dale, Ill.).

opiate receptors = assay: [3H]-naloxone binding competition in rat forebrain membranes
Forced swim test (rats) = assay type: in vivo, rat; settings: three doses, 5 min test, vehicle 81 s
Procedure: Forced Swim Test (FST; Rats) The FST in rats was conducted as previously described (Porsolt et al., 2001). On day 1, rats were placed in a cylindrical chamber (20 cm in diameter, 46 cm deep) filled to a height of 38 cm with room temperature water for 15 min. After the completion of this pre-exposure test, animals were removed from the apparatus, dried with towels and placed under a heat lamp for ˜30 min. […] Animals were treated with these same doses again 20 h and 23 h after the initial dose. Twenty-four h after the pre-exposure, animals were re-introduced to the apparatus and video-recorded for 5 min. Immobility was hand-scored for each video record by a treatment blind observer (P.A.F.) using ANYmaze (Stoelting) to record the data.

rat α3β4 nAChR channels = rat α3β4 nAChR channels (Rattus norvegicus, UniProt P04757+P12392); settings: Xiao et al., 2001; cited from earlier work
[3] = Eyelid ptosis assessment (rats); assay type: in vivo, rat; settings: 5 mg/kg
Procedure: Ptosis was assessed as previously described (Rubin et al., 1957). Each animal was photographed while gently restrained by hand. Photographs were analyzed by a treatment blind observer (P.A.F.) and assigned a score of 0 (no ptosis, eye completely open), 1 (mild, eye partially closed), 2 (moderate, eye half closed), 3 (severe, eye […] closed), or 4 (complete, eye completely closed).

T2 sequence (P32297 32-505): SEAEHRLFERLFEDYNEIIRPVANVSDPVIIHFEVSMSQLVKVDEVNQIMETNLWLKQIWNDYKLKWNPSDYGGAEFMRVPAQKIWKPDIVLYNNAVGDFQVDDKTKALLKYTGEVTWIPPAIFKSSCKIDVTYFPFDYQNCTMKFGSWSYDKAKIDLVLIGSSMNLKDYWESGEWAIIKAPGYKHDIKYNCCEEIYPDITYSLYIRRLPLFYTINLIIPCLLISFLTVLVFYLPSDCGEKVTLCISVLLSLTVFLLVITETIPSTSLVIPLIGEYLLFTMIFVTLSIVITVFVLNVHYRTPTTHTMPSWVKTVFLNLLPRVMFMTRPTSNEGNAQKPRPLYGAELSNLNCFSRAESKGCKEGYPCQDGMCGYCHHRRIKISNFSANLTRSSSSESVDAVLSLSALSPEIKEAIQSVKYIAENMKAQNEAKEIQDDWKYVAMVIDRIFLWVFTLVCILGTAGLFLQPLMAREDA
T2 sequence (P30926 22-498): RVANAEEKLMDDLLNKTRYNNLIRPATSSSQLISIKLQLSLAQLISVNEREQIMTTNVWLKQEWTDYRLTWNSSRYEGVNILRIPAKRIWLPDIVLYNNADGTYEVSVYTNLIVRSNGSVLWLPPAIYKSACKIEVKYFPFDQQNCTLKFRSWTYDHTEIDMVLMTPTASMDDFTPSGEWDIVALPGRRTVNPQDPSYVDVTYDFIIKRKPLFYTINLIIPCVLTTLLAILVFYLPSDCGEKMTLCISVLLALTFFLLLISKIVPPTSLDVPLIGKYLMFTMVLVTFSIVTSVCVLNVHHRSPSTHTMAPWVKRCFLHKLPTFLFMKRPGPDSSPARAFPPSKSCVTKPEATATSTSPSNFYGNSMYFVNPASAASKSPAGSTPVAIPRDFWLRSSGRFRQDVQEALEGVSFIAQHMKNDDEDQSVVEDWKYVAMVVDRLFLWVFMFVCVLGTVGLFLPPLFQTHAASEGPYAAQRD
T1 sequence (P43681 29-627 limits assumed): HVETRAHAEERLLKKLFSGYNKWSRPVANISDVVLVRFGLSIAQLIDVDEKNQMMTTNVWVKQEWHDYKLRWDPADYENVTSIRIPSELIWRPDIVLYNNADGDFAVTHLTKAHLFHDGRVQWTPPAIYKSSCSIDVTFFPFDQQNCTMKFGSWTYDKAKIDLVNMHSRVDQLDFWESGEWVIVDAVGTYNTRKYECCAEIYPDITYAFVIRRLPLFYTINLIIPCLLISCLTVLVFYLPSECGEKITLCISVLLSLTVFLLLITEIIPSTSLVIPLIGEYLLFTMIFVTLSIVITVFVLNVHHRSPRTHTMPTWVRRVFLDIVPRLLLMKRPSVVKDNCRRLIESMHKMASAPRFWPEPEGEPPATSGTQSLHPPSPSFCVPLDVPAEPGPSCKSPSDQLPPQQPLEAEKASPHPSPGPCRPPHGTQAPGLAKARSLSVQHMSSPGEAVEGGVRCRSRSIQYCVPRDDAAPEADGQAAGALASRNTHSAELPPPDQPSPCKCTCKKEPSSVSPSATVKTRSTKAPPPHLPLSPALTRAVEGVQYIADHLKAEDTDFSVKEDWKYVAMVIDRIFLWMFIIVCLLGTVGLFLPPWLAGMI
T1 sequence (P17787 26-502): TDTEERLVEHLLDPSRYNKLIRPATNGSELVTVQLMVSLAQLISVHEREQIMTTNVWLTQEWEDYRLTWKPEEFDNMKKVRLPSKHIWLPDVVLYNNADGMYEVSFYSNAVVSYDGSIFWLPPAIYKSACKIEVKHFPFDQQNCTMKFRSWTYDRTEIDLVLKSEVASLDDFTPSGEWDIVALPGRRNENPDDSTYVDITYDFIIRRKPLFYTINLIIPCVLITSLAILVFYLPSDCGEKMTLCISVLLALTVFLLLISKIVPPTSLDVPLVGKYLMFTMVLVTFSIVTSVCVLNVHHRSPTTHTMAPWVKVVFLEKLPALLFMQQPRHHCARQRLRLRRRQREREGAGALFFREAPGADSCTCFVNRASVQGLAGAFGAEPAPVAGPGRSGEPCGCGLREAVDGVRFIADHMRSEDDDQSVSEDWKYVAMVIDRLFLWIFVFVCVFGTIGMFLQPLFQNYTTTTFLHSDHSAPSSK
Sequence of rat α3β4 nAChR channels (P04757 26-499): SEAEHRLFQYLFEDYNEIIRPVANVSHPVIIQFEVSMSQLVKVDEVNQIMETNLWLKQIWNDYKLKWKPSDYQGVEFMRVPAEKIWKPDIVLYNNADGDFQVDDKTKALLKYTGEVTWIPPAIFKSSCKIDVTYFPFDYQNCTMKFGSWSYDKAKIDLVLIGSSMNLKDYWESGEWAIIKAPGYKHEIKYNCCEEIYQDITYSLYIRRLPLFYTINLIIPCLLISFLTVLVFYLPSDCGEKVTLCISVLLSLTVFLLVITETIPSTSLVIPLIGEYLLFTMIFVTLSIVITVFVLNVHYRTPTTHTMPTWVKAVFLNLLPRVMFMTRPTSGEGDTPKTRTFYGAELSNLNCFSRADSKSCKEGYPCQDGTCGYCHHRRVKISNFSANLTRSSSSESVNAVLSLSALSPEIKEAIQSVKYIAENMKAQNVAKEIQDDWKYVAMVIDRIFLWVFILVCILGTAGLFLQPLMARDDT
Sequence of rat α3β4 nAChR channels (P12392 21-495): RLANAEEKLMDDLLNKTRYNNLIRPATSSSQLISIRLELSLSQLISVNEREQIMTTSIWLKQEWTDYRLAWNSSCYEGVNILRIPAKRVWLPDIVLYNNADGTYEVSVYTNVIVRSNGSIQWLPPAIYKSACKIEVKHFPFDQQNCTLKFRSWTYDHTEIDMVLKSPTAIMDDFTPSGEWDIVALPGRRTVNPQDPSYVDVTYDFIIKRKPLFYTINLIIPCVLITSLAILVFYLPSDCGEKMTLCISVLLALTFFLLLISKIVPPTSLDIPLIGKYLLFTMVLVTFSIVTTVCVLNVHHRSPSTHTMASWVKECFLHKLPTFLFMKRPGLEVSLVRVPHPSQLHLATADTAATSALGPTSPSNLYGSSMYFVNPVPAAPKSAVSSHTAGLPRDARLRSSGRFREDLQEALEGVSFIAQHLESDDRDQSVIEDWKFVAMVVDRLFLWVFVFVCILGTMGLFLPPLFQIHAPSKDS

With `CC=C1N(C)C(C)CC1(c1ccccc1)c1ccccc1` (single isomer, unassigned; (-)) [(−)-EDDP, 2-ethylidene-1,5,dimethyl-3,3-diphenylpyrrolidine perchlorate] the IC50 (human α4β2 nAChRs) was 1400 ± 200 nM and the IC50 (human α3β4 nAChRs) was 700 ± 60 nM.
With `CC=C1N(C)C(C)CC1(c1ccccc1)c1ccccc1` (racemic) [EDDP, 2-ethylidene-1,5-dimethyl-3,3-diphenylpyrrolidine] the “number of marbles buried vs vehicle” value (Marble burying (mice); 5 mg/kg i.p.) was “buried significantly fewer marbles”, the “number of marbles buried vs vehicle” value (Marble burying (mice); 10 mg/kg i.p.) was “did not reach statistical significance” and the “open field locomotor activity” value [1] was “neither EDDP nor EMDP significantly altered”. The “duration of immobility in forced swim test vs vehicle” value (“duration of immobility … vs vehicle” below) (Forced swim test (mice); 1 mg/kg i.p.) was “did not produce a significant effect”, the “duration of immobility … vs vehicle” value (Forced swim test (mice); 5 mg/kg i.p.) was “did not produce a significant effect” and the “duration of immobility … vs vehicle” value (Forced swim test (mice); 10 mg/kg i.p.) was “did not produce a significant effect”. For the same molecule, the “mean duration in the open arms of the elevated plus maze” value ([2]; 10 mg/kg s.c., 30 min after drug, vehicle 104 s) was 80 s, the “percentage of entries made into the open arms of the plus maze” value ([2]; vs vehicle) was “the groups did not differ” and the “latency to first entry in the open arms” value ([2]; vs vehicle (data not shown)) was “did not differ as a function of treatment group”. The “apparent affinity, fold lower than that of methadone” value (opiate receptors; rat forebrain [3H]-naloxone binding) was ~83 fold and 84 fold, the “fraction of [3H]-naloxone binding sites competed for” value (opiate receptors; rat forebrain membranes) was “nearly all of the binding sites” and the Ki (opiate receptors; rat forebrain membranes, 2 nM [3H]-naloxone, single-site model) was 918 nM. The “immobile time in forced swim test vs vehicle” value (shortened to “immobile time … vs vehicle”) (Forced swim test (rats); 10 mg/kg s.c.) was “without effect” and the “block of rat α3β4 nAChR channels” value (rat α3β4 nAChR channels) was “potently block”.
With `CNC1=Nc2ccc(Cl)cc2C(c2ccccc2)=[N+]([O-])C1` [CDP, chlordiazepoxide HCl, reference compound] the “number of marbles buried vs vehicle” value (Marble burying (mice); 10 mg/kg i.p.) was “buried significantly fewer marbles”.
`CCC1=NC(C)CC1(c1ccccc1)c1ccccc1` (single isomer, unassigned; (+)) [(+)-EMDP, 2-ethyl-5-methyl-3,3-diphenyl-1-pyrroline hydrochloride] showed an IC50 (human α4β2 nAChRs) of 24000 ± 5000 nM and an IC50 (human α3β4 nAChRs) of 7400 ± 2100 nM.
Molecule `CCC1=NC(C)CC1(c1ccccc1)c1ccccc1` (single isomer, unassigned; (-)) [(−)-EMDP, 2-ethyl-5-methyl-3,3-diphenyl-1-pyrroline hydrochloride] has an IC50 (human α4β2 nAChRs) of 19000 ± 4000 nM and an IC50 (human α3β4 nAChRs) of 7000 ± 1200 nM.
In the case of `CN[C@H]1CC[C@@H](c2ccc(Cl)c(Cl)c2)c2ccccc21` [sertraline, sertraline HCl, reference compound], the “immobile time … vs vehicle” value (Forced swim test (rats); 20 mg/kg s.c.) is reported as “significantly reduced immobile time”.
With `CNC1(C)C2CCC(C2)C1(C)C` (centres unmarked) [Mecamylamine, Mecamylamine HCl] the IC50 (human α4β2 nAChRs) was 1000 ± 300 nM, the “eyelid ptosis quantified over 3 h” value [3] was “produced ptosis in a time-dependent manner” and the “onset of ptosis after injection” value [3] was ≤ 15 min. The “ptosis observed during forced swim tests” value [3] was “obvious ptosis” and the “immobile time … vs vehicle” value (Forced swim test (rats); 5 mg/kg s.c.) was “reduced immobile time”.
Work on `CC=C1N(C)C(C)CC1(c1ccccc1)c1ccccc1` (single isomer, unassigned; (+)) [(+)-EDDP, 2-ethylidene-1,5,dimethyl-3,3-diphenylpyrrolidine perchlorate] yielded an IC50 (human α4β2 nAChRs) of 1800 ± 600 nM and an IC50 (human α3β4 nAChRs) of 900 ± 90 nM.
